The term AC50 denotes the midpoint of the concentration-response curve, whichever way the signal moves.

Calls of active or inactive are those of the source.

This note sets out measurements from ChEMBL document CHEMBL1201862, “PubChem BioAssay data set” (2004).

Assay [1] concerns the target T1, Zinc finger protein mex-5 (Caenorhabditis elegans, UniProt Q9XUB2).
T1 sequence (Q9XUB2 whole entry): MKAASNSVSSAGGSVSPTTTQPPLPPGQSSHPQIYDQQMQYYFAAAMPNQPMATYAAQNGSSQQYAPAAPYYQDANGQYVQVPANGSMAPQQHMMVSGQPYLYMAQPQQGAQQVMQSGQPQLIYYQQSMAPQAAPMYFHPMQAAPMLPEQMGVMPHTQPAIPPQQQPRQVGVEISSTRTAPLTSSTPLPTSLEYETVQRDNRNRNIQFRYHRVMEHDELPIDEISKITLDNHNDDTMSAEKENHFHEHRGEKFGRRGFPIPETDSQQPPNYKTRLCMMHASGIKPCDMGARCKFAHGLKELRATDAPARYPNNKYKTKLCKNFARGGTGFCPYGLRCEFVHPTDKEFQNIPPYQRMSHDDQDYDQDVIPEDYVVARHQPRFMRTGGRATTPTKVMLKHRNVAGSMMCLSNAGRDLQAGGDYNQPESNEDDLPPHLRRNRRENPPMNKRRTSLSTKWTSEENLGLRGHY
The assay can be described thus: potency of MEX-5 RNA-binding blockers – biochemical, C. elegans, fluorescence polarization, dose response (AID 1960). On the technique in general: In fluorescence polarisation assays a small probe gives low polarisation when free and higher when bound to something large.

Assay [2] deals with T2, RNA-binding protein pos-1 (Caenorhabditis elegans, UniProt G5EF15).
T2 sequence (G5EF15 whole entry): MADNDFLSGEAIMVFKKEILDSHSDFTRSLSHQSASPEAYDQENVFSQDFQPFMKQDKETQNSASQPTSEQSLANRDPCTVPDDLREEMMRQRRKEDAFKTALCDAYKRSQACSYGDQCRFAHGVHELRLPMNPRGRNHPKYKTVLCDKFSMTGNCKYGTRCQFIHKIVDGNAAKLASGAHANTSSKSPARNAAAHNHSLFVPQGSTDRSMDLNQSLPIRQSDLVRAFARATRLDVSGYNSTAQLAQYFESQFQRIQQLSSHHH
The assay can be described thus: disruptors of C. elegans POS-1 RNA interaction – biochemical, fluorescence polarization, dose response (AID 1964).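 Also: purified POS-1 fused to maltose binding protein made in E. coli; potency of compounds blocking POS-1 binding to fluorescent RNA.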

Assay [3] concerns the target T3, DNA repair and recombination protein RAD54-like (Homo sapiens, UniProt Q92698).
T3 sequence (Q92698 whole entry): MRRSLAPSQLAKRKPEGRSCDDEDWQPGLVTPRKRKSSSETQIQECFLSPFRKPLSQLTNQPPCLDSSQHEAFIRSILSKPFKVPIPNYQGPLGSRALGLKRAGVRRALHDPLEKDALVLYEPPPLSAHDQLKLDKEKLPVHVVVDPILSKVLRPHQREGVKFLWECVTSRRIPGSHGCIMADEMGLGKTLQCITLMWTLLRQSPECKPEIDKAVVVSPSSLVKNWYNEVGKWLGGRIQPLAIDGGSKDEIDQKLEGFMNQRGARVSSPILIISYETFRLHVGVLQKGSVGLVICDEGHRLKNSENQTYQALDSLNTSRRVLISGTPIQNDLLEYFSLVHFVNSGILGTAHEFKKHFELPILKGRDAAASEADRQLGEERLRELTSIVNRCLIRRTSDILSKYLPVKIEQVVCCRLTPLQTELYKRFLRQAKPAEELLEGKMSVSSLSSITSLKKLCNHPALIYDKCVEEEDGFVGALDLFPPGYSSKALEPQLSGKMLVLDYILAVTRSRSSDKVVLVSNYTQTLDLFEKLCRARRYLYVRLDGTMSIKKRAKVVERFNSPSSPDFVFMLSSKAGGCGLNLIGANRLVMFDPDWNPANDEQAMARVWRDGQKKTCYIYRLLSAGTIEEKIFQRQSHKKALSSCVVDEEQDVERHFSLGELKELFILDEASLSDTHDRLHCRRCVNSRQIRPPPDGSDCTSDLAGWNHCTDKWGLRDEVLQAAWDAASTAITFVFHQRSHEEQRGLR
The experiment in a line: RAD54 Holliday junction migration blockers – biochemical, fluorescence, cherry-picked samples, dose series, confirmation (AID 651657). Type of assay: functional.

The target of assay [4] is Protein Wnt-3a (Mus musculus, UniProt P27467). The experiment in a line: antagonism of Wnt3a pathway luciferase reporter – Wnt-LIGHT cells, luminescence, selectivity assay for Gli-SUFU antagonist project, dose response (AID 651570).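 Also: Wnt-LIGHT reporter cells stimulated with conditioned medium from Wnt3a-producing cells.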 Type of assay: functional. The settings on record: read-out: IC50_Mean. (In general: A reporter such as luciferase makes a cellular process visible.)
Chain of Protein Wnt-3a (P27467 whole entry): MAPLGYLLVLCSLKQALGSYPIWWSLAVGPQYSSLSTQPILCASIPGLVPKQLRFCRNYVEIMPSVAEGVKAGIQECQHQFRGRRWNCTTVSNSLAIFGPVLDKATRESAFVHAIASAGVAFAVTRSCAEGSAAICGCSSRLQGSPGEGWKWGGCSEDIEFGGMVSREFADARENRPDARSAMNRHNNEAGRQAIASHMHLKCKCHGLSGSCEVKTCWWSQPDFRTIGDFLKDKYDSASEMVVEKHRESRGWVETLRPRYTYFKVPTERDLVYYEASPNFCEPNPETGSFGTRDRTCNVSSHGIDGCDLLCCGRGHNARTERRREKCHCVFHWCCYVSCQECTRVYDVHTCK

Assay [5] concerns the target T4, Corticotropin-releasing factor receptor 2/Corticotropin-releasing factor-binding protein (Homo sapiens, UniProt P24387+Q13324).
T4 sequence (Q13324 whole entry): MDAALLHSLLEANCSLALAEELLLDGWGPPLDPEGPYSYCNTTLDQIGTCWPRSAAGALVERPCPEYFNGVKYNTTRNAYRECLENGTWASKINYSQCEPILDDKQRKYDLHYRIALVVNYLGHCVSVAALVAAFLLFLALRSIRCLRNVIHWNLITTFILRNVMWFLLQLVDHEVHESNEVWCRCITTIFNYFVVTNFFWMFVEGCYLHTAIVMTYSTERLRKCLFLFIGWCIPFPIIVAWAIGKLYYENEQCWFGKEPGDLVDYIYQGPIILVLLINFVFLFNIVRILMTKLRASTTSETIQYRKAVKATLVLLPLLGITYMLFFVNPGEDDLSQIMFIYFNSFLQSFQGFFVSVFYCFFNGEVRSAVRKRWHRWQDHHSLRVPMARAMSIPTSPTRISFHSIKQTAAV
T4 sequence (P24387 whole entry): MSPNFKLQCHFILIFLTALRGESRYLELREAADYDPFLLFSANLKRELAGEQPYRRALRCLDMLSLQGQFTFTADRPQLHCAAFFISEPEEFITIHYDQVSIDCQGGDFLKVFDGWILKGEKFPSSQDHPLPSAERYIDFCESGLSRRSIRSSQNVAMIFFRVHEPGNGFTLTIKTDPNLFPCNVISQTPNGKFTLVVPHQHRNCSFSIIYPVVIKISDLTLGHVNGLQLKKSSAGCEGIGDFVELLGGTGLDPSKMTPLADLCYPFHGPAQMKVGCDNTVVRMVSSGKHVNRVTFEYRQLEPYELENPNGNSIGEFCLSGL
The experiment in a line: Dose Response confirmation of uHTS hits for small molecule antagonists of the CRF-binding protein and CRF-R2 receptor complex. The settings on record: read-out: IC50_Mean. The assay is classed as functional.

The nature of assay [6]: blockers of CRF-binding protein–CRF-R2 complex – cell-based, uHTS hits, 384-well, dose response (AID 651639). Type of assay: functional, Homo sapiens. The settings on record: read-out: IC50_Mean.
Assay [7] can be described thus: microbe, parasite or virus in culture. Type of assay: functional. The settings on record: Mycobacterium tuberculosis.
Assay [8] deals with T4, Corticotropin-releasing factor receptor 2/Corticotropin-releasing factor-binding protein. The assay can be described thus: activators of CRF receptor 2 with binding protein – uHTS hits, confirmation (AID 602473). Type of assay: functional. The settings on record: read-out: EC50_Mean.
The nature of assay [9]: reduction of Shn3 3'UTR-driven luciferase in osteoblasts – cell-based, Clone20 osteoblasts, firefly luciferase, cherry-picked, dose response (AID 624132).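 Also: firefly luciferase luminescence from reporter carrying the Shn3 3'UTR in osteoblasts.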 The assay is classed as functional.
Assay [10] can be described thus: non-specific 3'UTR reporter inhibition in Clone20-Shn3RL – cell-based, Renilla luciferase, cherry-picked, counter-screen for Shn3 inhibitor project, dose response (AID 624133). Type of assay: functional. Background: The purpose of a counterscreen is to sort out artefacts and off-target activity.
The nature of assay [11]: Trypanosoma cruzi growth suppression in host cells – NIH3T3 host cells, beta-gal luminescence, confirmation (AID 2044).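 Also: intracellular parasites grown in NIH/3T3 mouse fibroblasts as host cells; luminescent beta-galactosidase reporter signal from transgenic T. cruzi replicating inside host cells; inhibitors lower the luminescence signal.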 Type of assay: functional, cell-based.
The nature of assay [12]: loss of viability in HepG2 cells – cell-based, CellTiter-Glo, cherry-picked, cytotoxicity control for Shn3 inhibitor project, dose response (AID 624134). The assay is classed as functional.
The target in assay [13] is DNA dC->dU-editing enzyme APOBEC-3G (Homo sapiens, UniProt Q9HC16). The experiment in a line: inhibition of APOBEC3G ssDNA deamination – biochemical, fluorescence, single-stranded DNA substrate, SAR follow-up (AID 602136). The assay is classed as functional. The settings on record: read-out: IC50_Mean.
Chain of DNA dC->dU-editing enzyme APOBEC-3G (Q9HC16 whole entry): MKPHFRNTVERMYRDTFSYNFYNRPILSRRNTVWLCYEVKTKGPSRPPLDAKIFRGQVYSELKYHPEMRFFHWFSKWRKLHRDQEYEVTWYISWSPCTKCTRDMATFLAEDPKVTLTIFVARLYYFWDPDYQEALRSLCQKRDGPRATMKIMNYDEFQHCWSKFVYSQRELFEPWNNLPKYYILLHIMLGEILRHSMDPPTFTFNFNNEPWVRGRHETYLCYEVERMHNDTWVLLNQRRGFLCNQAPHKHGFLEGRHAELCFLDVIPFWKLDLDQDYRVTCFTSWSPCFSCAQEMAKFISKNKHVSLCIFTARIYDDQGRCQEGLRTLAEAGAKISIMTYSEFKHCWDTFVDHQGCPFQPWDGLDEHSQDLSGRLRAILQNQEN
The target in assay [14] is DNA dC->dU-editing enzyme APOBEC-3A (Homo sapiens, UniProt P31941). The experiment in a line: SAR analysis of small molecule inhibitors of APOBEC3A DNA Deaminase via a fluorescence-based single-stranded DNA deaminase assay. The settings on record: read-out: IC50_Mean. The assay is classed as functional.
Chain of DNA dC->dU-editing enzyme APOBEC-3A (P31941 whole entry): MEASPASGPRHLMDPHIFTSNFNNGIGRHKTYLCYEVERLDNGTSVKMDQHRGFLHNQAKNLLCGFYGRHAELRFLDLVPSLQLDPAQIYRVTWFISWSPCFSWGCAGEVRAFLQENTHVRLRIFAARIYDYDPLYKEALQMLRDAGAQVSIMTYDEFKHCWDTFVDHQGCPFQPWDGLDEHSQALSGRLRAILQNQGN
The nature of assay [15]: intracellular Trypanosoma cruzi inhibitors in host cells – cell-based, plate reader, cherry-pick samples, set 3, dose response (AID 651818).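 Also: compounds incubated with infected cells for about four days.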 The assay is classed as functional.

Take `COc1ccc(CCNC(=O)c2cc3c(=O)n4cccc(C)c4nc3n(CCCN3CCOCC3)c2=N)cc1`: the EC50 in [1] was 192 µM (active); in assay [2], 66.4 µM (active). For the same molecule, in [3], the AC50 was 16.2 µM (active).
For `FC(F)Oc1ccc(-c2cn3c([n+]2-c2ccccc2)CCCCC3)cc1`, the IC50 in assay [4] was 3.83 µM (active).
As to `COc1ccc(CCNc2nc(N3CCCCC3)nc(N3CCCCC3)n2)cc1OC`, the IC50 in [5] was 7.8 µM (active); in assay [6], > 20 µM (inactive). In addition, the CC50 in [7] was > 40 µM (active). For the same molecule, the EC50 in assay [8] is > 53 µM (inactive).
Consider `CC(=O)Nc1ccc(S(=O)(=O)N(Cc2ccccc2)C(C)C)cc1`, for which, in assay [4], the IC50 was 22.1 µM (inactive).
As to `Cc1nn(-c2cccc(Cl)c2)c2nc(C(F)(F)F)nc(O)c12`, the IC50 in [6] is 17.8 µM (active).
As to `O=C(c1cc2nc(-c3ccc(F)cc3)cc(C(F)(F)F)n2n1)N1CCCCC1c1cccnc1` (stereo unspecified), in [4], the IC50 was 3.57 µM (active). The concentration at half-maximal activity (AC50) in assay [9] is 2.37 µM (active); in assay [10], 2.12 µM (active); in assay [12], 5.1 µM (active). For the same molecule, the EC50 in assay [11] was 0.164 µM (active). In addition, the CC50 in assay [7] was > 40 µM (active).
For `CN1CCN(CCNC(=O)c2cc3c(=O)n(C)c4ccccc4c3n2C)CC1`, the AC50 in [3] is 35.3 µM (active).
In the case of `CCC(C(=O)Nc1nnc(SCCOC)s1)c1ccccc1` (stereo unspecified), the IC50 in assay [13] and in assay [14] was > 99 µM (inactive) each time.
On to `Cc1ccc(CC(=O)Nc2nnc(-c3ccncc3)s2)cc1`, for which the IC50 in [13] and in assay [14] was > 99 µM (inactive) throughout.
As for `CCc1ccc(Nc2nc(Nc3cccc(OC)c3)nc(N3CCOCC3)n2)cc1`, the IC50 is 47.7 µM (inactive) in [13] and > 99 µM (inactive) in assay [14].
With `Cc1ccc(S(=O)(=O)N(C)C[C@H]2Oc3ccc(NS(=O)(=O)c4cccs4)cc3CC(=O)N([C@H](C)CO)C[C@H]2C)cc1`, the AC50 in assay [15] was 2.05 µM (active).
Still for that read-out and setting: the same measure for `COc1ccc(NC(=O)Nc2cccc3c2O[C@@H](CN(C)Cc2ccc(C(=O)Nc4ccccc4N)cc2)[C@H](C)CN([C@@H](C)CO)C3=O)cc1`: 0.535 µM (active); for `COc1ccc(S(=O)(=O)Nc2cccc3c2O[C@H](CN(C)Cc2ccc(C(=O)Nc4ccccc4N)cc2)[C@@H](C)CN([C@H](C)CO)C3=O)cc1`: 4.11 µM (active).
